The values below come from patent publication US9394549B2, “Method for producing useful chemical substance from terephthalic acid potassium salt” (GENARIS, INC., priority 2012, dated 2016).

A short description of series [1]: Solubility of terephthalic acid salts in water. The format is physicochemical. The procedure: 2.99 g (0.018 mol) of terephthalic acid (in a form of powder, manufactured by Sigma-Aldrich Japan; hereinafter, unless otherwise specified, reagents used were ones manufactured by Sigma-Aldrich Japan) and 0.036 mol of potassium hydroxide (in a form of granule) were put in a 50 mL-glass beaker. Distilled water was filled to obtain a volume of about 15 mL. The resulting mixture was covered with aluminum foil as a lid, heated at 50° C. for 60 minutes while stirred by a hot stirrer (manufactured by AS ONE Corporation), and allowed to cool to 30° C. After stirring at 30° C. for 120 minutes or more and confirming the precipitate remained in the solution, 1 mL of the solution was collected and subjected to centrifugation using a high speed micro centrifuge (manufactured by Tomy Seiko Co., Ltd.) (30° C., 14000 rpm (17800 g), 30 seconds) to collect the supernatant.
The concentration of terephthalic acid in this supernatant was measured and regarded as the solubility of dipotassium terephthalate. With regard to the measurement of the concentration of terephthalic acid, the sample was diluted 16,000-fold with 2.5% aqueous acetonitrile solution and analyzed in separation conditions of Table 1 using high performance liquid chromatography (Waters Corporation, LCT Premier XE). Thereafter, the concentration was calculated on the basis of a ratio of the area of terephthalic acid peaks using aqueous terephthalic acid solution with a known concentration as a control.

Series [2] deals with recombinant Escherichia coli strain M7032 (pUXPEaLT_tphA2A3A1_tpaK). The series is described as follows: Production of TPA-DHD from terephthalic acid salt in jar fermentor culture. The settings on record: for Ratio of the capacity in production (TPA-DHD): disodium terephthalate as 100%. The class given is cell-based. The procedure:
Based on the results of Example 1, on the basis of terephthalic acid, potassium hydroxide, sodium hydroxide, 28% ammonium solution and distilled water, 0.6 M dipotassium terephthalate aqueous solution, 0.6 M 1-potassium 4-sodium terephthalate aqueous solution, 0.6 M 1-potassium 4-ammonium terephthalate aqueous solution, and 0.6 M disodium terephthalate aqueous solution were prepared 500 mL each. 30 ml of these terephthalic acid salt solutions and 7 g of glucose were mixed to prepare a glucose and substrate mixed solution.
A TPA-DHD production plasmid pUXPEaLT_tphA2A3A1_tpaK constructed in Reference Example 3 was introduced into Escherichia coli M7032 strain (obtained from CGSC of Yale University) by a transformation method to obtain a recombinant Escherichia coli strain M7032 (pUXPEaLT_tphA2A3A1_tpaK).
This transformant was cultured in 1 ml of LB liquid medium (10 g/l tryptone (manufactured by Difco), 5 g/l dried yeast extract (manufactured by Difco), 10 g/l sodium chloride) containing ampicillin at a final concentration of 100 mg/1 overnight. Next, merely 1% of this overnight culture was inoculated in 10 ml of F6.6W/P100/G2 medium containing ampicillin at a final concentration of 100 mg/I and cultured at 30° C. for 24 hours.
Next, in order to carry out main culture based on this preculture, 65 ml of F6.6W/P10/G1 medium which is a main culture medium was put in an octuple mini jar fermentor (manufactured by ABLE Corporation) and adjusted to 30.2° C.±0.2 and pH 6.9±0.1.
The aeration condition of the jar fermentor culture was adjusted to 1 vvm and the adjustment of the pH of the culture was carried out using an ammonium solution and sulfuric acid. Further, dissolved oxygen in the culture solution was regulated as a saturated oxygen concentration of 100% and controlled with the revolution of stirring blade such that the dissolved oxygen is maintained at 15%, which dissolved oxygen decreasing as bacterial cells grow.
In a main culture medium, 0.1% of preculture was inoculated and cultured in the above condition. When the bacterial cell turbidity reached about 7 at an absorbance of 600 nm, an inducer, m-toluic acid was added such that the final concentration thereof was 1 mM to express a terephthalate 1,2-dioxygenase protein, terephthalate 1,2-dioxygenase reductase protein, and terephthalic acid transporter protein. The glucose concentration was measured with time. When the glucose concentration reached 0, the glucose and substrate mixed solution was administered.
Each of the samples was subjected to analysis in conditions shown in Table 1 by an LC-TOF type mass spectrometer (Waters Corporation, LCT Premier XE). Identification of terephthalic acid was carried out with a combination of retention time of high performance liquid chromatography and an accurate mass value from the mass spectrometer, comparing to a standard sample of terephthalic acid. Among substances appeared as terephthalic acid decreased, TPA-DHD was identified on the basis of a predicted accurate mass value of TPA-DHD. Further, quantification of TPA-DHD was carried out on the basis of a calibration curve prepared from an amount of terephthalic acid decreased and an increase in the peak area of TPA-DHD.
First, 0.6 M dipotassium terephthalate aqueous solution and 0.6 M disodium terephthalate aqueous solution, both of which were prepared in Example 2, were mixed at a ratio of 0:100, 20:80, 25:75, 30:70, 35:65, and 50:50 to prepare each aqueous solution of the terephthalic acid salts. These terephthalic acid salt solutions 30 ml and glucose 7 g were mixed to obtain glucose and substrate mixed solutions.
Using these glucose and substrate mixed solutions, the capacity of recombinant Escherichia coli strain M7032 (pUXPEaLT_tphA2A3A1_tpaK) in production of TPA-DHD was examined by the same method as the method of Example 2. […]

Series [3] is described as follows: Solubility of terephthalic acid salts in ethylene glycol. The class given is physicochemical. The settings on record: for concentration of terephthalate in saturated ethylene glycol solvent: heated at 100° C. for 60 minutes, cooled to 30° C. or less, filtered; for solubility: organic solvent or mixture, same method as Example 1. The procedure: 4.15 g of terephthalic acid (0.025 mol) was placed in a 200 mL glass beaker and then 0.050 mol of potassium hydroxide (in a form of granule), 0.050 mol of sodium hydroxide (in a form of granule), or 0.025 mol of potassium hydroxide, and 0.025 mol of sodium hydroxide were placed thereto. Ethylene glycol was filled to obtain a volume of about 100 mL. The resulting mixture was covered with aluminum foil as a lid, heated at 100° C. for 60 minutes while stirred by a hot stirrer, and allowed to cool to 30° C. or less. These solutions were filtered with a filter paper (Grade 540 manufactured by Whatman) to obtain an ethylene glycol solvent saturated with the terephthalate.
The concentration of each of the terephthalates contained in such a solvent was 0.23 M in a dipotassium terephthalate saturated solution, 0.11 M in a disodium terephthalate saturated solution, and 0.20 M in a 1-potassium 4-sodium terephthalate saturated solution.

Setting [4] is: 0.6 M salt solution as raw material, 48 hours after the start of the main culture.
Where [5] appears, read: salt from PET in 1-butanol, 35 hours.
Where [6] appears, read: salt obtained by depolymerization of PET in 1-butanol (Example 9), 0.6M, 35 hours.
Setting [7] is: salt obtained by depolymerization of PTT (Example 7), 0.6M, 48 hours.
Setting [8] is: 30 °C, water, thermodynamic from solid, in water at 30° C., rounded values of the summary, read-out: solubility in water at 30° C.
Setting [9] is: 30 °C, water, thermodynamic from solid, in water, 30° C., read-out: Solubility.

For the compound `N.O=C([O-])c1ccc(C(=O)O)cc1.[K+]` [1-potassium 4-ammonium terephthalate], in series [1], the solubility turned out to be 845 mM and the “solubility in water at 30° C.” value is given as “about 0.85 M”. The TPA-DHD in series [2] (setting [4]) was 12.2 g/L. In addition, the “Ratio of the capacity in production (TPA-DHD)” value (“Ratio of the capacity” below) in series [2] (48 hours) worked out at 126%.
As to `O=C([O-])c1ccc(C(=O)[O-])cc1.[K+].[Na+]` [1-potassium 4-sodium terephthalate], in series [1], the solubility amounted to 956 mM. The “solubility in water at 30° C.” value in series [1] is reported as “about 0.96 M”. Further, in series [3], the “solubility in ethylene glycol” value is 205 mM. Further, the TPA-DHD in series [2] (setting [4]) is 10.7 g/L; in series [2] (setting [6]), 14.8 g/L; in series [2] (setting [7]), 14.3 g/L. The “Ratio of the capacity” value in series [2] (48 hours) was found to be 110%; in series [2] (setting [5]), 116%; in series [2] (salt from PTT, 48 hours), 112%.
As to `O=C([O-])c1ccc(C(=O)[O-])cc1.[K+].[K+]` [Dipotassium terephthalate, dipotassium terephthalate], the solubility in series [1] (setting [8]) was around 1000 mM; in series [1] (setting [9]), 1010 mM; in series [3], 231 mM. In addition, in series [3], the “concentration of terephthalate in saturated ethylene glycol solvent” value is 0.23 M. The TPA-DHD is recorded as 11.3 g/L in series [2] (setting [4]), 17.4 g/L in series [2] (setting [6]) and 17.7 g/L in series [2] (setting [7]). In addition, the “Ratio of the capacity” value stood at 116% in series [2] (48 hours); 136% in series [2] (setting [5]); 138% in series [2] (salt from PTT, 48 hours).
For `O=C([O-])c1ccc(C(=O)[O-])cc1.[Na+].[Na+]` [Disodium terephthalate, disodium terephthalate, reference compound], the figures for the solubility in series [1] (setting [8]), in series [1] (setting [9]) and in series [3] were around 630 mM, 630 mM and 109 mM, respectively. Moreover, in series [3], the “concentration of terephthalate in saturated ethylene glycol solvent” value is recorded as 0.11 M. Also, the TPA-DHD stood at 9.7 g/L in series [2] (setting [4]), 12.8 g/L in series [2] (setting [6]) and 12.8 g/L in series [2] (setting [7]). The “Ratio of the capacity” value in series [2] (48 hours) was 100%; in series [2] (setting [5]) it was 100%; in series [2] (salt from PTT, 48 hours) it was 100%.

For orientation: solubility means how much of the substance goes into solution per volume.
